TGI and GI50 data for 20 compounds are collected here from PubChem BioAssay (NCI).

SMILES strings stand for the structures.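 Where inhibition never reached the appropriate level, the endpoint shown equals the highest concentration tested. Otherwise, values were interpolated linearly from a five-concentration, 48-hour dose response in 96-well plates. GI50: concentration for 50% inhibition of growth. TGI denotes the concentration required for complete inhibition of growth.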

One assay relates to IGROV1 ovarian. The experiment in a line: NCI-60 cell line screen, 48 h.
`O=[N+]([O-])c1ccc(NSc2ccccc2)cc1` displayed a TGI of 27.7 µM.
`Cc1c(C(=O)/C=C/c2cccc3ccccc23)[n+](=O)c2ccccc2n1[O-]` displayed a TGI of 48.7 µM.
Still for that read-out and setting: the figure for `CC(=O)/C=C/c1cccc(N=S)c1` is more than 48.4 µM; for `O=C1/C(=C/c2ccccc2)CN(C(=O)Oc2ccc(Cl)cc2)C/C1=C\c1ccccc1` it is 10.2 µM; for `CC1=C[C@@H]2Cc3occc3C(C)(C)[C@@H]2CC1` it is more than 10 µM.
Consider `CC1=C2[C@@H](CC1)[C@]1(C)O[C@@](C(C)C)(C[C@H]1OC(=O)[C@H](C)O)[C@H]2OC(=O)/C=C/c1ccccc1`, for which the GI50 is 19.2 µM and the TGI stood at 49.8 µM.
Turning to `CN(C)c1ccc2c(c1)oc(=O)c1ccccc12`, the TGI stood at 36.7 µM.
For the compound `CN1CCN(Cc2ccc(NC(=O)c3cncc(C#Cc4cnc(N)c5ccccc45)c3)cc2C(F)(F)F)CC1`, the GI50 is 0.127 µM and the TGI was 0.615 µM.
Regarding `NS(=O)(=O)c1ccc(-n2nc(-c3ccc(Br)cc3)ccc2=O)cc1`, the GI50 is more than 10 µM and the TGI is more than 10 µM.
For the compound `S=C1NCCN1C1=Nc2ccccc2CO1`, the GI50 is 74 µM and the TGI is more than 100 µM.

Another assay concerns M14 melanoma. Kind of assay: NCI-60 cell line screen, 48 h.
Take `CC(=O)OCCc1cccnc1/C=N/O`: the TGI is more than 100 µM.
As for `Cc1c(Cl)cccc1Nc1ncccc1C(=O)O`, the GI50 is more than 100 µM and the TGI was more than 100 µM.
The compound `CN(C)c1ccc(/C=C2\C[N+](C)(C)C/C(=C\c3ccc(N(C)C)cc3)C2=O)cc1` had a TGI of 74.8 µM.
On the same count and under the same terms, the figure for `C#CC(C)(C)Oc1cc(O)c2c(=O)c3ccccc3n(C)c2c1` is more than 100 µM; for `COc1cc2c(NCCCCCCO[N+](=O)[O-])ncnc2c(OC)c1OC` it is 36.8 µM.
`CN1CCCNCCN(CCc2ccccn2)CCCN(C)CC1` showed a TGI of more than 100 µM.
For the compound `N#Cc1cnn2ccn(C3OC(COC(=O)c4ccccc4)C(OC(=O)c4ccccc4)C3OC(=O)c3ccccc3)c12` (stereo not given), the TGI was more than 21.5 µM.
On to `OC(c1cccc(C(F)(F)F)c1)c1cnccc1NC1CCCCCC1` (stereo not given), for which the GI50 was 1.8 µM and the TGI was determined as 3.64 µM.
On the same counts, the results for `N#Cc1c(O)c2c(c(O)c1C#N)C(=O)c1ccccc1C2=O` are 0.41 µM and 1.92 µM.
Turning to `CN=C1NC(=O)/C(=C/c2ccc3ncccc3c2)S1`, the GI50 is 9.6 µM and the TGI was more than 25 µM.
Take `O=[N+]([O-])c1ccc(NSc2ccccc2)cc1`: the TGI stood at 64.5 µM.
Same read-out and setting: the figure for `Cc1c(C(=O)/C=C/c2cccc3ccccc23)[n+](=O)c2ccccc2n1[O-]` is 26.9 µM.
The compound `CC(=O)/C=C/c1cccc(N=S)c1` had a TGI of 22.4 µM.
Still for that read-out and setting: the figure for `O=C1/C(=C/c2ccccc2)CN(C(=O)Oc2ccc(Cl)cc2)C/C1=C\c1ccccc1` is 3.48 µM.
The same measure, in the same setting: to `CC1=C[C@@H]2Cc3occc3C(C)(C)[C@@H]2CC1` belongs 47.1 µM.
Consider `CC1=C2[C@@H](CC1)[C@]1(C)O[C@@](C(C)C)(C[C@H]1OC(=O)[C@H](C)O)[C@H]2OC(=O)/C=C/c1ccccc1`, for which the GI50 is 13.4 µM and the TGI was determined as 32.5 µM.
The compound `CN(C)c1ccc2c(c1)oc(=O)c1ccccc12` came in with a TGI of 26.5 µM.
As for `CN1CCN(Cc2ccc(NC(=O)c3cncc(C#Cc4cnc(N)c5ccccc45)c3)cc2C(F)(F)F)CC1`, the GI50 was 0.133 µM and the TGI is 0.551 µM.
Take `NS(=O)(=O)c1ccc(-n2nc(-c3ccc(Br)cc3)ccc2=O)cc1`: the GI50 was more than 10 µM and the TGI was more than 10 µM.
Consider `S=C1NCCN1C1=Nc2ccccc2CO1`, for which the GI50 was more than 100 µM and the TGI is more than 100 µM.

The test system of the next assay is SNB-19 CNS. Kind of assay: NCI-60 cell line screen, 48 h.
As for `CC(=O)OCCc1cccnc1/C=N/O`, the TGI is more than 100 µM.
With `Cc1c(Cl)cccc1Nc1ncccc1C(=O)O`, the GI50 is more than 100 µM and the TGI is more than 100 µM.
On to `CN(C)c1ccc(/C=C2\C[N+](C)(C)C/C(=C\c3ccc(N(C)C)cc3)C2=O)cc1`, for which the TGI is 45.4 µM.
Consider `C#CC(C)(C)Oc1cc(O)c2c(=O)c3ccccc3n(C)c2c1`, for which the TGI is more than 100 µM.
The compound `COc1cc2c(NCCCCCCO[N+](=O)[O-])ncnc2c(OC)c1OC` yielded a TGI of more than 100 µM.
Same read-out and setting: the figure for `CN1CCCNCCN(CCc2ccccn2)CCCN(C)CC1` is more than 100 µM; for `N#Cc1cnn2ccn(C3OC(COC(=O)c4ccccc4)C(OC(=O)c4ccccc4)C3OC(=O)c3ccccc3)c12` (stereo not given) it is more than 21.5 µM.
For `OC(c1cccc(C(F)(F)F)c1)c1cnccc1NC1CCCCCC1` (stereo not given), the GI50 was 1.83 µM and the TGI came out at 4.08 µM.
The like results for `N#Cc1c(O)c2c(c(O)c1C#N)C(=O)c1ccccc1C2=O` were, in that order, 2.86 µM and 22.2 µM.
On the same counts, the results for `CN=C1NC(=O)/C(=C/c2ccc3ncccc3c2)S1` are 9.5 µM and more than 25 µM.
For `O=[N+]([O-])c1ccc(NSc2ccccc2)cc1`, the TGI is more than 100 µM.
Still for that read-out and setting: the figure for `Cc1c(C(=O)/C=C/c2cccc3ccccc23)[n+](=O)c2ccccc2n1[O-]` is 29.7 µM; for `CC(=O)/C=C/c1cccc(N=S)c1` it is more than 87.5 µM.
Regarding `O=C1/C(=C/c2ccccc2)CN(C(=O)Oc2ccc(Cl)cc2)C/C1=C\c1ccccc1`, the TGI was found to be 10.1 µM.
The same measure, in the same setting: the figure for `CC1=C[C@@H]2Cc3occc3C(C)(C)[C@@H]2CC1` is more than 10 µM.
As for `CC1=C2[C@@H](CC1)[C@]1(C)O[C@@](C(C)C)(C[C@H]1OC(=O)[C@H](C)O)[C@H]2OC(=O)/C=C/c1ccccc1`, the GI50 was 17.1 µM and the TGI stood at 37.2 µM.
With `CN(C)c1ccc2c(c1)oc(=O)c1ccccc12`, the TGI is 28.3 µM.
With `CN1CCN(Cc2ccc(NC(=O)c3cncc(C#Cc4cnc(N)c5ccccc45)c3)cc2C(F)(F)F)CC1`, the GI50 was 0.563 µM and the TGI amounted to 1.22 µM.
For the compound `NS(=O)(=O)c1ccc(-n2nc(-c3ccc(Br)cc3)ccc2=O)cc1`, the GI50 was more than 10 µM and the TGI is more than 10 µM.
Turning to `S=C1NCCN1C1=Nc2ccccc2CO1`, the GI50 was more than 100 µM and the TGI is more than 100 µM.
